Experimental data reported in article PMC8776995 (Frontiers in Chemistry, 2022).
Where “and” joins values, the source holds several entries; their conditions need not be identical. Equal entries are not always repeated. Where two headings read alike, the source gives them in different places.

Tests used:
PC-9 cells [1] = test: Hoechst 33342 staining for cell apoptosis; type: cell-based, human; conditions: PC-9, various concentrations, 48 h, vs 0.1% DMSO
Description: To further verify the impact of compounds e4 and e12 on apoptosis of NSCLC cells, PC-9 cells were treated with either compound e4 or e12 at various concentrations for 48 h and then stained with dye Hoechst 33342.
PC-9 cells were seeded in 96-well plates, then treated with 0.1% DMSO (as control) or various concentrations of compound e4 or e12 for 48 h. Culture medium from the cells was removed and replaced with medium containing dye Hoechst 33342. Cells were incubated at 37°C for 5–15 min, washed with PBS twice, and then observed and imaged under the Nikon Ti-U microscope.

PC-9 cells [2] = test: CCK-8 antiproliferation assay, PC-9; conditions: for Inhibitory efficacy: single repeats (Repeat 1-3), given as fraction
H1975 cells = test: CCK-8 antiproliferation assay, H1975; conditions: for Inhibitory efficacy: H1975 cells
[3] = tested on: CCND1, CCNA2, CCNB1, CDK2, CDK6 RNA in PC-9 cells; test: qPCR assay for cell cycle-related gene analysis; type: cell-based, human; conditions: for CCNB relative mRNA expression (2^-ddCt vs NC, normalised to beta-Actin) / CCND1 relative mRNA expression (2^-ddCt vs NC, normalised to beta-Actin) / CDK6 relative mRNA expression (2^-ddCt vs NC, normalised to beta-Actin): qPCR SYBR_GREEN, NC = 1; for RQ / RQ, CCNA / RQ, CCNB / RQ, CCND1 / RQ, CDK6 / RQ (CDK2): endogenous control b-Actin, reference sample NC; for 2^ΔΔCт CCNA / 2^ΔΔCт CCNB / 2^ΔΔCт CCND1 / 2^ΔΔCт CDK2 / 2^ΔΔCт CDK6: Repeat 1-3, relative to NC = 1; for CDK6 relative mRNA expression (fold of NC): qPCR, SYBR Green, normalised to beta-Actin, relative to NC = 1
Description: To better understand the mechanisms underlying cell cycle arrest induced by e4 and e12 in NSCLC cells, we assessed the expression levels of a few genes involved in cell cycle regulation, including cyclin D1 (CCND1), cyclin A2 (CCNA2), cyclin B1 (CCNB1), cyclin-dependent kinase 2 (CDK2), and cyclin-dependent kinase 6 (CDK6) in PC-9 by qPCR. […] CCNA2 is known to bind and activate CDK2 and thus promotes the transition through G1/S and G2/M. CCNB1 and CCND1 are essential to mitosis and G1/S transition respectively. While G2/M arrest weas not detected, the changes in these gene expression profiles interpret the G1/S arrests in PC-9 cells treated with e4 and e12. PC-9 cells exposed to the compounds for various periods should be examined further.
Total RNA of cells was extracted and cDNA was synthesized. The primers for the target products were designed as in Table 3.

[4] = tested on: AKT phosphorylation (S473) in H460 cells; test: Western blot, p-AKT/AKT in H460; conditions: for p-AKT/AKT: band density ratio; for p-AKT/AKT relative to DMSO: ratio normalised to DMSO
Description: We also performed western blot analysis to evaluate the impact of e4 and e12 on EGFR signaling in PC-9 and H460 cells.
H460 cells were seeded in six-well plates with serum-free medium overnight, and then treated complete medium containing 0.1% DMSO, various concentrations (0.1, 1 and 10 μM) of either compound e4 or e12 for 2 h, respectively. […] Then the H460 cells were treated with complete medium containing EGF (10 ng/ml) for 5 min. Then the cells were harvested and washed with PBS, centrifuged, resuspended in 100–200 μl of RIPA lysis buffer containing Protease and Phosphatase Inhibitor Cocktail (1X), and then centrifuged for 5 min at 12,000 rpm at 4°C. The supernatant was used for protein analysis. […] Then the membrane was washed 5 min (X3) and incubated at 1:3,000 dilution of anti-rabbit secondary antibodies or 1:1,000 dilution of anti-mouse secondary antibodies for 1 h at RT. After washing with TBST 5 min (X3), protein bands were developed by chemiluminescence. The protein levels were quantified by the gray values of the bands in the resulting images by ImageJ, and the control group was used as the standard. […] The PC-9 cells were harvested and analyzed as above.

[5] = PC-9, 16 h, compared with DMSO control

`COCCOc1cc2ncnc(Nc3cccc(-c4cn(-c5ccc(C)cc5)nn4)c3)c2cc1OCCOC` [e12, [6,7-Bis-(2-methoxy-ethoxy)-quinazolin-4-yl]-[3-(1-p-tolyl-1H-[1,2,3]triazol-4-yl)-phenyl]-amine] was tested, and the “apoptotic morphology, Hoechst 33342 staining” value (PC-9 cells [1]) was “exhibited features typical of apoptosis”, the IC50 (PC-9 cells [2]; Homo sapiens, PC-9, 48 h, read-out: IC50 (μM) PC-9) was 6.36 ± 0.11 µM and the inhibition at 4 µM (PC-9 cells [2]; Homo sapiens, PC-9, read-out: Inhibitory efficacy, PC-9, 4uM, single repeats (Repeat 1-3), given as fraction) was 21.3%. The inhibition at 8 µM (PC-9 cells [2]; Homo sapiens, PC-9, read-out: Inhibitory efficacy, PC-9, 8uM, single repeats (Repeat 1-3), given as fraction) was 70.1%, the inhibition at 16 µM (PC-9 cells [2]; Homo sapiens, PC-9, read-out: Inhibitory efficacy, PC-9, 16uM, single repeats (Repeat 1-3), given as fraction) was 88.6% and the Inhibitory efficacy (PC-9 cells [2]; PC-9, 4uM, 4 µM) was 0.1587 and 0.2347. For the same compound, the Inhibitory efficacy (PC-9 cells [2]; PC-9, 8uM, 8 µM) was 0.6968 and 0.6771, the Inhibitory efficacy (PC-9 cells [2]; PC-9, 16uM, 16 µM) was 0.8795 and 0.8884 and the Inhibitory efficacy (H1975 cells; 1uM, given as fraction, Repeat 1-3) was 0.1624 and 0.1374. The Inhibitory efficacy (H1975 cells; 2uM, given as fraction, Repeat 1-3) was 0.2034 and 0.2177, the Inhibitory efficacy (H1975 cells; 4uM, given as fraction, Repeat 1-3) was 0.2052 and 0.2481 and the Inhibitory efficacy (H1975 cells; 8uM, given as fraction, Repeat 1-3) was 0.4158 and 0.4836. For the same compound, the Inhibitory efficacy (H1975 cells; 16uM, given as fraction, Repeat 1-3) was 0.8709 and 0.8763, the IC50 (H1975 cells; Homo sapiens, NCI-H1975, 48 h, read-out: IC50 (μM) H1975, CCK-8, 48 h, average ± SD of three independent experiments) was < 10 µM and the inhibition at 1 µM (H1975 cells; Homo sapiens, NCI-H1975, read-out: Inhibitory efficacy, H1975 cells, 1uM, given as fraction, Repeat 1-3) was 18.4%. The inhibition at 2 µM (H1975 cells; Homo sapiens, NCI-H1975, read-out: Inhibitory efficacy, H1975 cells, 2uM, given as fraction, Repeat 1-3) was 28.9%, the inhibition at 4 µM (H1975 cells; Homo sapiens, NCI-H1975, read-out: Inhibitory efficacy, H1975 cells, 4uM, given as fraction, Repeat 1-3) was 23.2% and the inhibition at 8 µM (H1975 cells; Homo sapiens, NCI-H1975, read-out: Inhibitory efficacy, H1975 cells, 8uM, given as fraction, Repeat 1-3) was 40.7%. For the same compound, the inhibition at 16 µM (H1975 cells; Homo sapiens, NCI-H1975, read-out: Inhibitory efficacy, H1975 cells, 16uM, given as fraction, Repeat 1-3) was 87.6%, the IC50 (H1975 cells; read-out: IC50 (μM) H1975, CCK-8, 48 h, average ± SD of three independent experiments) was 7.25 ± 0.45 µM and the “CCNB relative mRNA expression (2^-ddCt vs NC, normalised to beta-Actin)” value ([3]; 4uM) was 0.9828. For the same compound, the “CCND1 relative mRNA expression (2^-ddCt vs NC, normalised to beta-Actin)” value ([3]; 4uM) was 0.7886, the “CDK6 relative mRNA expression (2^-ddCt vs NC, normalised to beta-Actin)” value ([3]; 4uM) was 0.5928 and the “CCNB relative mRNA expression (2^-ddCt vs NC, normalised to beta-Actin)” value ([3]; 8uM) was 0.8452. For the same compound, the “CCND1 relative mRNA expression (2^-ddCt vs NC, normalised to beta-Actin)” value ([3]; 8uM) was 0.7649, the “CDK6 relative mRNA expression (2^-ddCt vs NC, normalised to beta-Actin)” value ([3]; 8uM) was 0.8101 and the “CCNB relative mRNA expression (2^-ddCt vs NC, normalised to beta-Actin)” value ([3]; 12uM) was 0.7825. The “CCND1 relative mRNA expression (2^-ddCt vs NC, normalised to beta-Actin)” value ([3]; 12uM) was 0.6173, the “CDK6 relative mRNA expression (2^-ddCt vs NC, normalised to beta-Actin)” value ([3]; 12uM) was 0.676 and the RQ ([3]; CCNA mRNA, 4uM) was 0.8394. For the same compound, the RQ ([3]; CCNA mRNA, 8uM) was 0.6204, the RQ ([3]; CCNA mRNA, 12uM) was 0.7362 and the “2^ΔΔCт CCNA” value ([3]; 4uM) was 0.5435 and 0.6447 and 0.8394. The “2^ΔΔCт CCNA” value ([3]; 8uM) was 0.582 and 0.5272 and 0.6204, the “2^ΔΔCт CCNA” value ([3]; 12uM) was 0.5914 and 0.5472 and 0.7362 and the RQ ([3]; CCNB mRNA, 4uM) was 1.03. For the same compound, the RQ ([3]; CCNB mRNA, 8uM) was 0.8431, the RQ ([3]; CCNB mRNA, 12uM) was 1.0421 and the “2^ΔΔCт CCNB” value ([3]; 4uM) was 0.9828 and 0.8732 and 1.03. For the same compound, the “2^ΔΔCт CCNB” value ([3]; 8uM) was 0.8452 and 0.8244 and 0.8431, the “2^ΔΔCт CCNB” value ([3]; 12uM) was 0.7825 and 0.7721 and 1.0421 and the “2^ΔΔCт CCND1” value ([3]; CCND1, 4uM) was 0.7886 and 0.963 and 1.159. The “2^ΔΔCт CCND1” value ([3]; CCND1, 8uM) was 0.7649 and 0.9528 and 0.8372, the “2^ΔΔCт CCND1” value ([3]; CCND1, 12uM) was 0.6173 and 0.9545 and 0.694 and the RQ ([3]; CCND1 mRNA, 4uM) was 1.159. For the same compound, the RQ ([3]; CCND1 mRNA, 8uM) was 0.8372, the RQ ([3]; CCND1 mRNA, 12uM) was 0.694 and the “2^ΔΔCт CDK2” value ([3]; CDK2, 4uM) was 0.9262 and 1.002 and 1.127. The “2^ΔΔCт CDK2” value ([3]; CDK2, 8uM) was 0.848 and 1.034 and 0.9665, the “2^ΔΔCт CDK2” value ([3]; CDK2, 12uM) was 0.7751 and 1.0315 and 0.9502 and the RQ ([3]; CDK2 mRNA, 4uM) was 1.127. The RQ ([3]; CDK2 mRNA, 8uM) was 0.9665, the RQ ([3]; CDK2 mRNA, 12uM) was 0.9502 and the “2^ΔΔCт CDK6” value ([3]; CDK6, 4uM) was 0.5928 and 0.8604 and 0.9896. The “2^ΔΔCт CDK6” value ([3]; CDK6, 8uM) was 0.8101 and 1.1509 and 0.9153, the “2^ΔΔCт” value ([3]; CDK6, 8uM, normalized to WT (NC), run 20201020-2) was 0.9153 and the “2^ΔΔCт CDK6” value ([3]; CDK6, 12uM) was 0.676 and 1.27 and 0.9852. It also gave an RQ ([3]; CDK6 mRNA, 4uM) of 0.9896, an RQ ([3]; CDK6 mRNA, 8uM) of 0.9153 and an RQ ([3]; CDK6 mRNA, 12uM) of 0.9852. For the same compound, the “RNA level of CCNA2” value [3, 5] was “significantly decreased”, the “RNA level of CCNB1” value [3, 5] was “significantly decreased” and the “RQ, CCNA” value ([3]; qPCR SYBR Green, CCNA mRNA, 4uM) was 0.6447. The “RQ, CCNA” value ([3]; qPCR SYBR Green, CCNA mRNA, 8uM) was 0.5272, the “RQ, CCNA” value ([3]; qPCR SYBR Green, CCNA mRNA, 12uM) was 0.5472 and the “RQ, CCNB” value ([3]; qPCR SYBR Green, CCNB mRNA, 4uM) was 1.09. The “RQ, CCNB” value ([3]; qPCR SYBR Green, CCNB mRNA, 8uM) was 1.029, the “RQ, CCNB” value ([3]; qPCR SYBR Green, CCNB mRNA, 12uM) was 0.964 and the “RQ, CCND1” value ([3]; qPCR SYBR Green, CCND1 mRNA, 4uM) was 0.963. For the same compound, the “RQ, CCND1” value ([3]; qPCR SYBR Green, CCND1 mRNA, 8uM) was 0.9528, the “RQ, CCND1” value ([3]; qPCR SYBR Green, CCND1 mRNA, 12uM) was 0.9545 and the “RQ, CDK6” value ([3]; qPCR SYBR Green, CDK6 mRNA, 4uM) was 0.8604. For the same compound, the “RQ, CDK6” value ([3]; qPCR SYBR Green, CDK6 mRNA, 8uM) was 1.1509, the “RQ, CDK6” value ([3]; qPCR SYBR Green, CDK6 mRNA, 12uM) was 1.27 and the “CDK6 relative mRNA expression (fold of NC)” value ([3]; 4uM) was 0.9896. The “CDK6 relative mRNA expression (fold of NC)” value ([3]; 8uM) was 0.9153, the “CDK6 relative mRNA expression (fold of NC)” value ([3]; 12uM) was 0.9852 and the “RQ, CCNA” value ([3]; target CCNA, 4uM) was 0.5435. The “RQ, CCNA” value ([3]; target CCNA, 8uM) was 0.582, the “RQ, CCNA” value ([3]; target CCNA, 12uM) was 0.5914 and the “RQ, CCNB” value ([3]; target CCNB, 4uM) was 0.9828. For the same compound, the “RQ, CCNB” value ([3]; target CCNB, 8uM) was 0.8452, the “RQ, CCNB” value ([3]; target CCNB, 12uM) was 0.7825 and the “RQ, CCND1” value ([3]; target CCND1, 4uM) was 0.7886. The “RQ, CCND1” value ([3]; target CCND1, 8uM) was 0.7649, the “RQ, CCND1” value ([3]; target CCND1, 12uM) was 0.6173 and the “RQ (CDK2)” value ([3]; target CDK2, 4uM) was 0.9262. The “RQ (CDK2)” value ([3]; target CDK2, 8uM) was 0.848, the “RQ (CDK2)” value ([3]; target CDK2, 12uM) was 0.7751 and the “RQ, CDK6” value ([3]; target CDK6, 4uM) was 0.5928. For the same compound, the “RQ, CDK6” value ([3]; target CDK6, 8uM) was 0.8101, the “RQ, CDK6” value ([3]; target CDK6, 12uM) was 0.676 and the p-AKT/AKT ([4]; H460, 0.1 uM) was 1.267. For the same compound, the “p-AKT/AKT relative to DMSO” value ([4]; H460, 0.1 uM) was 1.274, the p-AKT/AKT ([4]; H460, 1 uM) was 0.9055 and the “p-AKT/AKT relative to DMSO” value ([4]; H460, 1 uM) was 0.9102. For the same compound, the p-AKT/AKT ([4]; H460, 10 uM) was 0.594, the “p-AKT/AKT relative to DMSO” value ([4]; H460, 10 uM) was 0.5972 and the “phosphorylation of AKT (western blot)” value ([4]; H460, especially at 10 μM) was “suppressed”.
